Measured values taken from patent US7795295B2, “Small molecule inhibition of PDZ-domain interaction” (The Regents of the University of California, priority 2004, dated 2010).

Assays:
[1] = system: H460 cells; assay: Apoptosis by Annexin V FITC flow cytometry, H460; type: cell-based, human; details: 10 μM for 3 days
Method: (§1) Compound 1 and other compounds of Tables 1A and 1B were similarly tested for apoptotic effects to represent the inhibitory effects of compounds on interaction between the PDZ domain of the Dishevelled (Dvl) protein and the Fz protein (Wnt receptor). Cell lines H460 and LOX were utilized, with the test compound being applied at 10 μM for 3 days. Cultured cells treated with the test compounds in the culture media were harvested by trypsinization and stained using an Annexin V FITC Apoptosis Detection kit (Oncogene Science, Cambridge, Mass.), according to the manufacturer's protocol. Stained cells were immediately analyzed by flow cytometry (FACScan; Becton-Dickinson, Franklin Lake, N.J.).

[2] = system: LOX cells; assay: Apoptosis by Annexin V FITC flow cytometry, LOX; type: cell-based, human; details: 10 μM for 3 days
Method: as §1

[3] = Assay 1, library 1, control 9.22
[4] = Assay 1, library 1, control 10.85
[5] = Assay 2, library 2, control 10.24
[6] = Assay 2, library 2, control 9.67
[7] = Assay 3, library 3, control 7.59
[8] = Assay 3, library 3, control 8.81

Compound | apoptosis, % H460 [1, 3] [%] | apoptosis, % LOX [2, 4] [%] | apoptosis, % H460 [1, 5] [%] | apoptosis, % LOX [2, 6] [%] | apoptosis, % H460 [1, 7] [%] | apoptosis, % LOX [2, 8] [%]
Cc1cc2[nH]c(C(O)CC(C)C)c(CCc3ccccc3)c2cc1C(=O)O (centres unmarked) [Compound 2] | 34.21 | 36.32 |  |  |  | 
CCC(C)C(O)c1[nH]c2cc(C)c(C(=O)O)cc2c1CCc1ccccc1 (centres unmarked) [Compound 3] | 79.9 | 56.29 |  |  |  | 
Cc1cc2[nH]c(C(O)CC3CCCC3)c(CCc3ccccc3)c2cc1C(=O)O (centres unmarked) [Compound 4] | 36.41 | 32.52 |  |  |  | 
Cc1cc2[nH]c(C(O)C3CCCCC3)c(CCc3ccccc3)c2cc1C(=O)O (centres unmarked) [Compound 5] | 24.39 | 27.15 |  |  |  | 
Cc1cc2[nH]c(C(O)CCCC(=O)O)c(CCc3ccccc3)c2cc1C(=O)O (centres unmarked) [Compound 6] | 8.62 | 9.22 |  |  |  | 
CCCCC(=O)c1[nH]c2cc(C)c(C(=O)OC)cc2c1CCc1ccccc1 [Compound 7] | 13.92 | 17.96 |  |  |  | 
CCCCCc1c(C(O)CCCC)[nH]c2cc(C)c(C(=O)O)cc12 (centres unmarked) [Compound 10] |  |  | 39.64 | 19.08 |  | 
CCCCC(O)c1[nH]c2cc(C)c(C(=O)O)cc2c1CC(C)C (centres unmarked) [Compound 11] |  |  | 24.48 | 14.83 |  | 
CCCCC(O)c1[nH]c2cc(C)c(C(=O)O)cc2c1C1CCCCC1 (centres unmarked) [Compound 12] |  |  | 28.8 | 15.83 |  | 
CCCCC(O)c1[nH]c2cc(C)c(C(=O)O)cc2c1-c1ccccc1 (centres unmarked) [Compound 13] |  |  | 35.51 | 17.84 |  | 
CCCCC(O)c1[nH]c2cc(C)c(C(=O)O)cc2c1Cc1ccccc1 (centres unmarked) [Compound 14] |  |  | 24.26 | 11.88 |  | 
CCCCC(O)c1[nH]c2cc(C)c(C(=O)O)cc2c1CCCc1ccccc1 (centres unmarked) [Compound 15] |  |  | 37.4 | 17.57 |  | 
CCCCC(O)c1[nH]c2cc(C)c(C(=O)O)cc2c1CCCO (centres unmarked) [Compound 16] |  |  | 15.7 | 14.5 |  | 
CCCCC(O)c1[nH]c2cc(C)c(C(=O)O)cc2c1CCCC(=O)O (centres unmarked) [Compound 17] |  |  | 18.93 | 15.62 |  | 
Cc1cc2[nH]c(C(O)CC(C)C)c(-c3ccccc3)c2cc1C(=O)O (centres unmarked) [Compound 18] |  |  |  |  | 21.11 | 9.53
CCC(C)C(O)c1[nH]c2cc(C)c(C(=O)O)cc2c1-c1ccccc1 (centres unmarked) [Compound 19] |  |  |  |  | 44.15 | 47.62
Cc1cc2[nH]c(C(O)C(C)C)c(-c3ccccc3)c2cc1C(=O)O (centres unmarked) [Compound 20] |  |  |  |  | 28.9 | 11.77
Cc1cc2[nH]c(C(O)CC3CCCC3)c(-c3ccccc3)c2cc1C(=O)O (centres unmarked) [Compound 21] |  |  |  |  | 31.22 | 19.99
Cc1cc2[nH]c(C(O)C3CCCCC3)c(-c3ccccc3)c2cc1C(=O)O (centres unmarked) [Compound 22] |  |  |  |  | 16.22 | 15.47
Cc1cc2[nH]c(C(O)CC(C)(C)C)c(-c3ccccc3)c2cc1C(=O)O (centres unmarked) [Compound 23] |  |  |  |  | 12.09 | 11.34
Cc1cc2[nH]c(C(O)CCc3ccccc3)c(-c3ccccc3)c2cc1C(=O)O (centres unmarked) [Compound 24] |  |  |  |  | 26.58 | 26.56
CCCCC(=O)c1[nH]c2cc(C)c(C(=O)O)cc2c1CCc1ccccc1 [Compound 26] | 16.13 | 16.86 |  |  |  | 
Cc1cc2[nH]c(C(=O)CC(C)C)c(CCc3ccccc3)c2cc1C(=O)O [Compound 27] | 16.91 | 18.5 |  |  |  | 

Compound | apoptosis, % H460 [1, 3] [%] | apoptosis, % LOX [2, 4] [%] | apoptosis, % H460 [1, 5] [%] | apoptosis, % LOX [2, 6] [%] | apoptosis, % H460 [1, 7] [%] | apoptosis, % LOX [2, 8] [%]
CCC(C)C(=O)c1[nH]c2cc(C)c(C(=O)O)cc2c1CCc1ccccc1 (centres unmarked) [Compound 28] | 58.76 | 38.53 |  |  |  | 
Cc1cc2[nH]c(C(=O)CC3CCCC3)c(CCc3ccccc3)c2cc1C(=O)O [Compound 29] | 64.1 | 74.11 |  |  |  | 
Cc1cc2[nH]c(C(=O)C3CCCCC3)c(CCc3ccccc3)c2cc1C(=O)O [Compound 30] | 78.07 | 55.76 |  |  |  | 
Cc1cc2[nH]c(C(=O)CCCC(=O)O)c(CCc3ccccc3)c2cc1C(=O)O [Compound 31] | 9.07 | 12.06 |  |  |  | 
Cc1cc2[nH]c(C(=O)c3ccccc3)c(CCc3ccccc3)c2cc1C(=O)O [Compound 32] | 21.13 | 15.36 |  |  |  | 
Cc1cc2[nH]c(C(=O)Cc3ccccc3)c(CCc3ccccc3)c2cc1C(=O)O [Compound 33] | 12.66 | 15.03 |  |  |  | 
Cc1cc2[nH]c(C(=O)CCc3ccccc3)c(CCc3ccccc3)c2cc1C(=O)O [Compound 34] | 76.59 | 44.73 |  |  |  | 
CCCCCc1c(C(=O)CCCC)[nH]c2cc(C)c(C(=O)O)cc12 [Compound 35] |  |  | 34.73 | 23.23 |  | 
CCCCC(=O)c1[nH]c2cc(C)c(C(=O)O)cc2c1CC(C)C [Compound 36] |  |  | 41.48 | 13.51 |  | 
CCCCC(=O)c1[nH]c2cc(C)c(C(=O)O)cc2c1C1CCCCC1 [Compound 37] |  |  | 45.05 | 7.49 |  | 
CCCCC(=O)c1[nH]c2cc(C)c(C(=O)O)cc2c1-c1ccccc1 [Compound 38] |  |  | 51.61 | 13.58 |  | 
CCCCC(=O)c1[nH]c2cc(C)c(C(=O)O)cc2c1Cc1ccccc1 [Compound 39] |  |  | 42.9 | 29.35 |  | 
CCCCC(=O)c1[nH]c2cc(C)c(C(=O)O)cc2c1CCCc1ccccc1 [Compound 40] |  |  | 23.93 | 16.5 |  | 
CCCCC(=O)c1[nH]c2cc(C)c(C(=O)O)cc2c1CCCO [Compound 41] |  |  | 19.96 | 12.69 |  | 
CCCCC(=O)c1[nH]c2cc(C)c(C(=O)O)cc2c1CCCC(=O)O [Compound 42] |  |  | 49.41 | 15.22 |  | 
Cc1cc2[nH]c(C(=O)CC(C)C)c(-c3ccccc3)c2cc1C(=O)O [Compound 43] |  |  |  |  | 34.22 | 20.24
CCC(C)C(=O)c1[nH]c2cc(C)c(C(=O)O)cc2c1-c1ccccc1 (centres unmarked) [Compound 44] |  |  |  |  | 37.38 | 54.13
Cc1cc2[nH]c(C(=O)C(C)C)c(-c3ccccc3)c2cc1C(=O)O [Compound 45] |  |  |  |  | 96.96 | 86.71
Cc1cc2[nH]c(C(=O)CC3CCCC3)c(-c3ccccc3)c2cc1C(=O)O [Compound 46] |  |  |  |  | 39.06 | 38.6
Cc1cc2[nH]c(C(=O)C3CCCCC3)c(-c3ccccc3)c2cc1C(=O)O [Compound 47] |  |  |  |  | 49.77 | 73.02
Cc1cc2[nH]c(C(=O)CC(C)(C)C)c(-c3ccccc3)c2cc1C(=O)O [Compound 48] |  |  |  |  | 24.48 | 15.14
Cc1cc2[nH]c(C(=O)CCc3ccccc3)c(-c3ccccc3)c2cc1C(=O)O [Compound 49] |  |  |  |  | 82.53 | 96.34
Cc1cc2[nH]c(C(=O)CCCc3ccccc3)c(-c3ccccc3)c2cc1C(=O)O [Compound 50] |  |  |  |  | 41.75 | 72.47
